Drawing on ChEMBL document CHEMBL1201861, “Genomics of Drug Sensitity in Cancer screening data, Wellcome Trust Sanger Institute”, this text covers IC50 for 9 compounds.

Where only a bound is given, the exact number is not on record here.

Assay in all cases: cells
The subject of one test is COLO-800. It counts as functional, cell-based, Homo sapiens. Particulars: Homo sapiens, COLO-800.
The subject of another test is 697. It counts as functional, cell-based. The conditions noted are these: Homo sapiens.
A further test concerns ES8. It counts as functional, cell-based, Homo sapiens. The conditions noted are these: Homo sapiens, ES8.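 Note: growth inhibition of human ES8 cells, read out with a cell viability assay.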
A further test has as its system SW684. It counts as functional, cell-based, Homo sapiens. The conditions noted are these: Homo sapiens, SW684.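 Note: growth inhibition of human SW684 cells, measured by a cell viability assay.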
A further test deals with EW-13. It counts as functional, cell-based. The conditions noted are these: Homo sapiens.
Another test concerns EOL1. It counts as functional, cell-based. The conditions noted are these: Homo sapiens.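 Note: growth inhibition of EoL-1 cells, read out by a cell viability assay.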
The test system of another test is SK-N-DZ. It counts as functional, cell-based, Homo sapiens. The conditions noted are these: Homo sapiens, SK-N-DZ.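 Note: growth inhibition of the cancer cell line, read out through a viability assay.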
The test system of a further test is GT3TKB. It counts as functional, cell-based, Homo sapiens. Particulars: Homo sapiens, GT3TKB.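 Note: growth inhibition of the cell line, read out with a cell viability assay.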
The subject of the next test is EW-3. The class given is functional, cell-based. The conditions noted are these: Homo sapiens.
The subject of a further test is TE-5. The class given is functional, cell-based, Homo sapiens. Particulars: Homo sapiens, TE-5.
The subject of a further test is HCC2157. The class given is functional, cell-based. The conditions noted are these: Homo sapiens.
For the next test, the system named is EC-GI-10. The class given is functional, cell-based, Homo sapiens. Particulars: Homo sapiens, EC-GI-10.
A further test deals with LU-134-A. It counts as functional, cell-based. Particulars: Homo sapiens.
The test system of a further test is HuTu80. It counts as functional, cell-based, Homo sapiens, HUTU-80. Particulars: Homo sapiens, HuTu80.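 Note: growth inhibition of HuTu80 human cells, determined with a cell viability readout.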
In the next test the test system is DMS-114. The class given is functional, cell-based, Homo sapiens. The conditions noted are these: Homo sapiens, DMS-114.
Another test deals with KY821. It counts as functional, cell-based. The conditions noted are these: Homo sapiens.
In another test the test system is AM-38. It counts as functional, cell-based, Homo sapiens. The conditions noted are these: Homo sapiens, AM-38.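 Note: growth inhibition of AM-38 cells of human origin, read out by a cell viability assay.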
In another test the test system is LAMA-84. The class given is functional, cell-based. The conditions noted are these: Homo sapiens.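 Note: growth inhibition of LAMA-84 cells, read out with a cell viability assay.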
In another test the test system is NCI-H446. The class given is functional, cell-based. The conditions noted are these: Homo sapiens.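 Note: growth inhibition of NCI-H446 cells determined by a cell viability assay.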
The next test deals with SJSA-1. It counts as functional, cell-based, Homo sapiens. The conditions noted are these: Homo sapiens, SJSA-1.
The subject of another test is TGBC24TKB. The class given is functional, cell-based, Homo sapiens. The conditions noted are these: Homo sapiens, TGBC24TKB.
The subject of a further test is NCI-H1299. It counts as functional, cell-based, Homo sapiens. The conditions noted are these: Homo sapiens, NCI-H1299.
Another test deals with KURAMOCHI
The class given is functional, cell-based. The conditions noted are these: Homo sapiens.

Description for 697: SANGER: Inhibition of human 697 cell growth in a cell viability assay.
Description for COLO-800: SANGER: Inhibition of human COLO-800 cell growth in a cell viability assay.
Description for EC-GI-10: SANGER: Inhibition of human EC-GI-10 cell growth in a cell viability assay.
Description for EOL1: SANGER: Inhibition of human EoL-1-cell cell growth in a cell viability assay.
Description for ES8: SANGER: Inhibition of human ES8 cell growth in a cell viability assay.
Description for EW-13: SANGER: Inhibition of human EW-13 cell growth in a cell viability assay.
Description for EW-3: SANGER: Inhibition of human EW-3 cell growth in a cell viability assay.
Description for GT3TKB: SANGER: Inhibition of human GT3TKB cell growth in a cell viability assay.
Description for HCC2157: SANGER: Inhibition of human HCC2157 cell growth in a cell viability assay.
Description for HuTu80: SANGER: Inhibition of human HUTU-80 cell growth in a cell viability assay.
Description for KURAMOCHI: SANGER: Inhibition of human KURAMOCHI cell growth in a cell viability assay.
Description for LAMA-84: SANGER: Inhibition of human LAMA-84 cell growth in a cell viability assay.
Description for LU-134-A: SANGER: Inhibition of human LU-134-A cell growth in a cell viability assay.
Description for NCI-H1299: SANGER: Inhibition of human NCI-H1299 cell growth in a cell viability assay.
Description for NCI-H446: SANGER: Inhibition of human NCI-H446 cell growth in a cell viability assay.
Description for SJSA-1: SANGER: Inhibition of human SJSA-1 cell growth in a cell viability assay.
Description for SK-N-DZ: SANGER: Inhibition of human SK-N-DZ cell growth in a cell viability assay.
Description for SW684: SANGER: Inhibition of human SW684 cell growth in a cell viability assay.
Description for TE-5: SANGER: Inhibition of human TE-5 cell growth in a cell viability assay.
Description for TGBC24TKB: SANGER: Inhibition of human TGBC24TKB cell growth in a cell viability assay.

On to `CC1=C2C[C@H]3[C@@H](CC=C4C[C@@H](O)CC[C@@]43C)[C@@H]2CC[C@]12O[C@@H]1C[C@H](C)CN[C@H]1[C@H]2C` [CYCLOPAMINE], for which the IC50 in the test on COLO-800, with 697, with ES8, in the test on SW684, with EW-13 and in the test with EOL1 was > 16 µM throughout. Moreover, the IC50 in the test on SK-N-DZ, with GT3TKB, in the test on EW-3, in the test with TE-5, with HCC2157 and in the test with EC-GI-10 was > 16 µM each time. The IC50 with LU-134-A, with HuTu80, with DMS-114, in the test on KY821, with AM-38 and with LAMA-84 was > 16 µM in each case. In addition, the IC50 with NCI-H446 and in the test on SJSA-1 was > 16 µM in each case.

For `CN1CCN(CCOc2cc(OC3CCOCC3)c3c(Nc4c(Cl)ccc5c4OCO5)ncnc3c2)CC1` [SARACATINIB], the IC50 in the test with COLO-800, with 697, in the test with ES8, in the test on SW684, in the test with EW-13 and in the test with EOL1 was > 2 µM throughout. In addition, the concentration for half-maximal inhibition (IC50) in the test with SK-N-DZ is 1.85 µM; with GT3TKB, > 2 µM; in the test with EW-3 it was > 2 µM; in the test with TE-5 it was > 2 µM; with TGBC24TKB it was > 2 µM; in the test with HCC2157, > 2 µM. The IC50 in the test with EC-GI-10, in the test on NCI-H1299, in the test on KURAMOCHI, in the test on LU-134-A, with HuTu80 and with DMS-114 was > 2 µM throughout. Further, the IC50 was > 2 µM in the test with KY821; > 2 µM in the test with AM-38; 0.16 µM in the test on LAMA-84; > 2 µM with NCI-H446; > 2 µM in the test with SJSA-1.

On to `CS(=O)(=O)CCNCc1ccc(-c2ccc3ncnc(Nc4ccc(OCc5cccc(F)c5)c(Cl)c4)c3c2)o1` [LAPATINIB], for which the IC50 in the test on COLO-800, in the test with 697, with ES8, in the test on SW684, with EW-13 and in the test with EOL1 was > 2 µM in each case. Also, the IC50 with SK-N-DZ, in the test on GT3TKB, in the test on EW-3, in the test on TE-5, with HCC2157 and in the test on EC-GI-10 was > 2 µM in each case. Besides, the IC50 in the test on KURAMOCHI, with LU-134-A, in the test with HuTu80, with DMS-114, in the test on KY821 and with AM-38 was > 2 µM in each case. Besides, the IC50 in the test on LAMA-84, in the test on NCI-H446 and in the test on SJSA-1 was > 2 µM each time.

In the case of `CCc1nc(N)nc(N)c1-c1ccc(Cl)cc1` [PYRIMETHAMINE], the IC50 with COLO-800 is > 20 µM; in the test on 697, 3.6 µM; with ES8, 0.897 µM; in the test on SW684, > 20 µM; with EW-13, > 20 µM; in the test on EOL1, > 20 µM. Further, the IC50 with SK-N-DZ, with GT3TKB, in the test on EW-3, in the test on TE-5, in the test on HCC2157 and with EC-GI-10 was > 20 µM each time. Moreover, the IC50 in the test on NCI-H1299 is > 20 µM; in the test on KURAMOCHI it was > 20 µM; in the test on LU-134-A, > 20 µM; in the test with HuTu80, 12.1 µM; in the test with DMS-114 it was > 20 µM; in the test on KY821, > 20 µM. The IC50 in the test with AM-38 was > 20 µM; with LAMA-84 it was 2.66 µM; in the test with NCI-H446, > 20 µM; with SJSA-1, 3.77 µM.

On to `CNC(=O)c1cc(Oc2ccc(NC(=O)Nc3ccc(Cl)c(C(F)(F)F)c3)cc2)ccn1` [SORAFENIB], for which the IC50 in the test with COLO-800, in the test on 697, in the test on ES8, in the test on SW684, with EW-13 and in the test on EOL1 was > 4 µM each time. For the same compound, the IC50 in the test on SK-N-DZ is > 4 µM; in the test on GT3TKB, > 4 µM; in the test with EW-3, > 4 µM; in the test on TE-5, 3.13 µM; in the test with HCC2157 it was > 4 µM; with EC-GI-10, > 4 µM. Also, the IC50 with NCI-H1299, in the test with KURAMOCHI, in the test with LU-134-A, with HuTu80, in the test on DMS-114 and with KY821 was > 4 µM in each case. Further, the IC50 in the test on AM-38 is > 4 µM; in the test on LAMA-84, 1.38 µM; in the test on NCI-H446, > 4 µM; in the test on SJSA-1 it was > 4 µM.

Consider `O=C(/C=C/c1ccccc1)NC(NC(=S)Nc1cccc2cccnc12)C(Cl)(Cl)Cl` (stereo not given) [SALUBRINAL], for which the IC50 with COLO-800 was > 16 µM; in the test on 697, 3.99 µM; in the test on ES8 it was 8.64 µM; in the test with SW684, > 16 µM; in the test with EW-13, > 16 µM; in the test with EOL1, > 16 µM. Further, the IC50 in the test on SK-N-DZ, with GT3TKB, in the test with EW-3, with TE-5, in the test with HCC2157 and in the test with EC-GI-10 was > 16 µM in each case. For the same compound, the IC50 with KURAMOCHI was > 16 µM; with LU-134-A, > 16 µM; with HuTu80 it was 11.7 µM; with DMS-114, > 16 µM; in the test with KY821, > 16 µM; in the test on AM-38, > 16 µM. Further, the IC50 in the test with LAMA-84 is 15.7 µM; with NCI-H446, > 16 µM; in the test with SJSA-1 it was > 16 µM.

As to `C=C1C(=O)O[C@@H]2C3O[C@]3(C)CC/C=C(\C)CC[C@@H]12` (stereo not given in full), the IC50 in the test on COLO-800 was > 5 µM; in the test on 697, 0.465 µM; in the test on ES8 it was > 5 µM; with SW684, > 5 µM; in the test on EW-13, > 5 µM; in the test on EOL1, > 5 µM. The IC50 is 4.65 µM in the test with SK-N-DZ; > 5 µM in the test with GT3TKB; > 5 µM with EW-3; > 5 µM in the test with TE-5; > 5 µM with HCC2157; > 5 µM with EC-GI-10. For the same compound, the IC50 with NCI-H1299, with KURAMOCHI, with LU-134-A, in the test with HuTu80, in the test with DMS-114 and with KY821 was > 5 µM throughout. Besides, the IC50 in the test on AM-38, in the test with LAMA-84, in the test on NCI-H446 and with SJSA-1 was > 5 µM each time.

Turning to `CCC(=O)N1CCN(c2ccc(-n3c(=O)ccc4cnc5ccc(-c6cnc7ccccc7c6)cc5c43)cc2C(F)(F)F)CC1` [TORIN1], the IC50 was > 1.2 µM in the test with COLO-800; 0.00634 µM in the test on 697; 0.0184 µM in the test with ES8; > 1.2 µM with SW684; > 1.2 µM in the test with EW-13; 0.03 µM with EOL1. The IC50 with SK-N-DZ came out at 0.147 µM; in the test on GT3TKB it was 0.109 µM; in the test with EW-3 it was 0.217 µM; in the test with TE-5, 0.0385 µM; with TGBC24TKB it was 0.058 µM; in the test with HCC2157 it was 0.34 µM. The IC50 was > 1.2 µM with EC-GI-10; 0.0241 µM with KURAMOCHI; 0.553 µM in the test on LU-134-A; 0.00929 µM in the test with HuTu80; 0.24 µM with DMS-114; 0.22 µM in the test on KY821. Also, the IC50 with AM-38 is > 1.2 µM; in the test with LAMA-84, 0.0217 µM; in the test with NCI-H446, 0.169 µM; with SJSA-1, 0.0419 µM.

`Cc1cc(Nc2cc(N3CCN(C)CC3)nc(Sc3ccc(NC(=O)C4CC4)cc3)n2)n[nH]1` [TOZASERTIB]: the half-inhibitory concentration (IC50) in the test on COLO-800 is > 2 µM; in the test with 697 it was 0.0247 µM; in the test with ES8, 0.0461 µM; in the test with SW684, > 2 µM; in the test with EW-13 it was > 2 µM; in the test with EOL1 it was 0.335 µM. Moreover, the IC50 with SK-N-DZ was 0.962 µM; in the test with GT3TKB, 1.28 µM; in the test with EW-3, > 2 µM; in the test with TE-5 it was > 2 µM; with TGBC24TKB, 0.864 µM; in the test on HCC2157, > 2 µM. Besides, the IC50 with EC-GI-10 is > 2 µM; in the test on KURAMOCHI, 1.79 µM; in the test with LU-134-A, > 2 µM; with HuTu80 it was 0.053 µM; with DMS-114, > 2 µM; in the test with KY821, > 2 µM. Moreover, the IC50 was > 2 µM with AM-38, 0.352 µM with LAMA-84, > 2 µM in the test on NCI-H446 and > 2 µM in the test with SJSA-1.

As a reminder, the IC50 is the concentration at which inhibition is half-maximal. A high value points to weaker potency in that assay.
